System: production of TNF by monocytes activated with bacterial lipopolysaccharide (LPS)
Test: Lipopolysaccharide-activated monocyte TNF production assay
Format: cell-based
Conditions: Homo sapiens; whole blood monocyte assay (LPS induced TNF release)
Method: Test compounds were evaluated in vitro for the ability to inhibit the production of TNF by monocytes activated with bacterial lipopolysaccharide (LPS). Fresh residual source leukocytes (a byproduct of plateletpheresis) were obtained from a local blood bank, and peripheral blood mononuclear cells (PBMCs) were isolated by density gradient centrifugation on Ficol-Paque Plus (Pharmacia). PBMCs were suspended at 2×10^6/mL in DMEM supplemented to contain 2% FCS, 10 mM, 0.3 mg/mL […], 100 U/mL penicillin G and […] streptomycin sulfate (complete media). Cells were plated into Falcon flat bottom, 96 well culture plates (200 μL/well) and cultured overnight at 37° C. and 6% CO2. Non-adherent cells were removed by washing with 200 μl/well of fresh medium.
Test compounds were dissolved in […]. Compound stock solutions were prepared to an initial concentration of […]. Stocks were diluted initially to 20-200 μM in complete media. Nine two-fold serial dilutions of each compound were then prepared in complete medium.
One hundred microliters of each test compound dilution were added to microtiter wells containing adherent monocytes and 100 μL complete medium. Monocytes were cultured with test compounds for 60 min at which time 25 μL of complete medium containing 30 ng/mL lipopolysaccharide from E. coli K532 were added to each well. Cells were cultured an additional 4 hrs. Culture supernatants were then removed and TNF presence in the supernatants was quantified using an ELISA.
Flat bottom, 96 well Corning High Binding ELISA plates were coated overnight (4° C.) with 150 μL/well of 3 μg/mL murine anti-human TNF-α MAb (R&D Systems #MAB210). Wells were then blocked for 1 h at room temperature with 200 μL/well of CaCl2-free ELISA buffer supplemented to contain 20 mg/mL BSA (standard ELISA buffer: […], 150 mM NaCl, 2 mM CaCl2, 0.15 mM thimerosal, pH 7.4). Plates were washed and replenished with 100 μL of test supernatants (diluted 1:3) or standards. Standards consisted of eleven 1.5-fold serial dilutions from a stock of I ng/mL recombinant human TNF (R&D Systems). Plates were incubated at room temperature for 1 h on orbital shaker (300 rpm), washed and replenished with 100 μL/well of 0.5 μg/mL goat anti-human TNF-α (R&D systems #AB-210-NA) biotinylated at a 4:1 ratio. Plates were incubated for 40 min, washed and replenished with 100 μL/well of alkaline phosphatase-conjugated streptavidin (Jackson ImmunoResearch #016-050-084) at 0.02 μg/mL. Plates were incubated 30 min, washed and replenished with 200 μL/well of 1 mg/mL of p-nitrophenyl phosphate. After 30 min, plates were read at 405 nm on a Vmax plate reader.
Standard curve data were fit to a second order polynomial and unknown TNF-α concentrations determined from their OD by solving this equation for concentration. TNF concentrations were then plotted vs. test compound concentration using a second order polynomial. This equation was then used to calculate the concentration of test compounds causing a 50% reduction in TNF production.

| SMILES | IC50 |
| --- | --- |
| Cc1ccc(C(N)=O)cc1-c1ccc2c(N3C[C@@H](C)NC[C@@H]3C)nncc2c1 [Example 122, 3-{1-[(2S,5R)-2,5-dimethylpiperazin-1-yl]phthalazin-6-yl}-4-methylbenzamide] | ≤ 5 µM |
| Cc1ccc(C(=O)NC2CC2)cc1-c1ccc2c(N3C[C@H](C)OC[C@@H]3C)nncc2c1 [Example 123, N-cyclopropyl-3-{1-[(2S,5S)-2,5-dimethylmorpholin-4-yl]phthalazin-6-yl}-4-methylbenzamide] | ≤ 5 µM |
| Cc1ccc(C(=O)NC2CC2)cc1-c1ccc2c(N3CCN(C(=O)Nc4ccccc4)CC3)nncc2c1 [Example 124, 4-(6-{5-[(cyclopropylamino)carbonyl]-2-methylphenyl}phthalazin-1-yl)-N-phenylpiperazine-1-carboxamide] | ≤ 5 µM |
| Cc1ccc(C(=O)NC2CC2)cc1-c1ccc2c(N3C[C@@H]4C[C@H]3CN4)nncc2c1 [Example 125, N-cyclopropyl-3-{1-[(1S,4S)-2,5-diazabicyclo[2.2.1]hept-2-yl]phthalazin-6-yl}-4-methylbenzamide] | ≤ 5 µM |
| Cc1ccc(C(=O)NC2CC2)cc1-c1ccc2c(N3C[C@@H]4C[C@H]3CN4C(=O)OC(C)(C)C)nncc2c1 [Example 126, tert-butyl (1S,4S)-5-(6-{5-[(cyclopropylamino)carbonyl]-2-methylphenyl}phthalazin-1-yl)-2,5-diazabicyclo[2.2.1]heptane-2-carboxylate] | ≤ 5 µM |
| Cc1ccc(C(N)=O)cc1-c1ccc2c(N3CCS(=O)(=O)CC3)nncc2c1 [Example 127, 3-[1-(1,1-dioxidothiomorpholin-4-yl)phthalazin-6-yl]-4-methylbenzamide] | ≤ 5 µM |
| Cc1ccc(C(N)=O)cc1-c1ccc2c(N3CCSCC3)nncc2c1 [Example 128, 4-methyl-3-(1-thiomorpholin-4-ylphthalazin-6-yl)benzamide] | ≤ 5 µM |
| CCNC(=O)N1CCN(c2nncc3cc(-c4cc(C(=O)NC5CC5)ccc4C)ccc23)CC1 [Example 129, 4-(6-{5-[(cyclopropylamino)carbonyl]-2-methylphenyl}phthalazin-1-yl)-N-ethylpiperazine-1-carboxamide] | ≤ 5 µM |
| CC[C@@H]1CCCCN1c1nncc2cc(-c3cc(C(=O)NC4CC4)ccc3C)ccc12 [Example 130, N-cyclopropyl-3-{1-[(2R)-2-ethylpiperidin-1-yl]phthalazin-6-yl}-4-methylbenzamide] | ≤ 5 µM |
| Cc1ccc(-c2nncc3cc(-c4cc(C(=O)NC5CC5)ccc4C)ccc23)cc1 [Example 131, N-cyclopropyl-4-methyl-3-[1-(4-methylphenyl)phthalazin-6-yl]benzamide] | ≤ 5 µM |
| Cc1ccc(C(=O)NC2CC2)cc1-c1ccc2c(N3CCC[C@@H](C(N)=O)C3)nncc2c1 [Example 132, (3R)-1-(6-{5-[(cyclopropylamino)carbonyl]-2-methylphenyl}phthalazin-1-yl)piperidine-3-carboxamide] | ≤ 5 µM |
| Cc1ccc(C(=O)NC2CC2)cc1-c1ccc2c(N3CCS(=O)(=O)CC3)nncc2c1 [Example 133, N-cyclopropyl-3-[1-(1,1-dioxidothiomorpholin-4-yl)phthalazin-6-yl]-4-methylbenzamide] | ≤ 5 µM |
| Cc1ccc(C(=O)NC2CC2)cc1-c1ccc2c(N3CCSCC3)nncc2c1 [Example 134, N-cyclopropyl-4-methyl-3-(1-thiomorpholin-4-ylphthalazin-6-yl)benzamide] | ≤ 5 µM |
| Cc1cc(F)c(C(=O)NC2CC2)cc1-c1ccc2c(N3C[C@@H](C)OC[C@H]3C)nncc2c1 [Example 135, N-cyclopropyl-5-{1-[(2R,5R)-2,5-dimethylmorpholin-4-yl]phthalazin-6-yl}-2-fluoro-4-methylbenzamide] | ≤ 5 µM |
| Cc1ccc(C(=O)NC2CC2)cc1-c1ccc2c(N3CC[C@H]4CCCC[C@H]4C3)nncc2c1 [Example 136, 3-{1-[(4aR,8aR)-octahydroisoquinolin-2(1H)-yl]phthalazin-6-yl}-N-cyclopropyl-4-methylbenzamide] | ≤ 5 µM |
| Cc1ccc([N+](=O)[O-])cc1-c1ccc2c(N3CCOCC3)nncc2c1 [Example 137, 6-(2-methyl-5-nitrophenyl)-1-morpholin-4-ylphthalazine] | ≤ 5 µM |
| CCOC(=O)c1ccc(C)c(-c2ccc3c(NC(C)C)nncc3c2)c1 [Example 138, ethyl 3-[1-(isopropylamino)phthalazin-6-yl]-4-methylbenzoate] | ≤ 5 µM |
| Cc1ccc(C(=O)NC2CC2)cc1-c1ccc2c(N3CCN(C(=O)NCc4ccc(F)cc4)CC3)nncc2c1 [Example 139, 4-(6-{5-[(cyclopropylamino)carbonyl]-2-methylphenyl}phthalazin-1-yl)-N-(4-fluorobenzyl)piperazine-1-carboxamide] | ≤ 5 µM |
| Cc1ccc(C(=O)NC2CC2)cc1-c1ccc2c(N3CCN[C@H](C)C3)nncc2c1 [Example 140, N-cyclopropyl-4-methyl-3-{1-[(3R)-3-methylpiperazin-1-yl]phthalazin-6-yl}benzamide] | ≤ 5 µM |
| Cc1ccc(C(=O)NC2CC2)cc1-c1ccc2c(N)nncc2c1 [Example 141, 3-(1-aminophthalazin-6-yl)-N-cyclopropyl-4-methylbenzamide] | ≤ 5 µM |
| Cc1ccc(C(=O)NC2CC2)cc1-c1ccc2c(N3C[C@@H](C)O[C@@H](C)C3)nncc2c1 [Example 142, N-cyclopropyl-3-{1-[(2R,6S)-2,6-dimethylmorpholin-4-yl]phthalazin-6-yl}-4-methylbenzamide] | ≤ 5 µM |
| Cc1ccc(C(N)=O)cc1-c1ccc2c(N3CCNC[C@H]3C)nncc2c1 [Example 143, 4-methyl-3-{1-[(2R)-2-methylpiperazin-1-yl]phthalazin-6-yl}benzamide] | ≤ 5 µM |
| Cc1ccc(C(=O)NC2CC2)cc1-c1ccc2c(N3C[C@@H]4C[C@H]3CN4C(C)C)nncc2c1 [Example 144, N-cyclopropyl-3-{1-[(1S,4S)-5-isopropyl-2,5-diazabicyclo[2.2.1]hept-2-yl]phthalazin-6-yl}-4-methylbenzamide] | ≤ 5 µM |
| Cc1ccc(C(N)=O)cc1-c1ccc2c(Cl)nncc2c1 [Example 145, 3-(1-chlorophthalazin-6-yl)-4-methylbenzamide] | ≤ 5 µM |
| Cc1ccc(C(N)=O)cc1-c1ccc2c(N3CCNC[C@@H]3C)nncc2c1 [Example 146, 4-methyl-3-{1-[(2S)-2-methylpiperazin-1-yl]phthalazin-6-yl}benzamide] | ≤ 5 µM |
| Cc1ccc(C(=O)NC2CC2)cc1-c1ccc2c(N3C[C@@H](C)NC[C@@H]3C)nncc2c1 [Example 147, N-cyclopropyl-3-{1-[(2S,5R)-2,5-dimethylpiperazin-1-yl]phthalazin-6-yl}-4-methylbenzamide] | ≤ 5 µM |
| Cc1ccc(C(=O)NC2CC2)cc1-c1ccc2c(N3C[C@@H](C)N[C@@H](C)C3)nncc2c1 [Example 148, N-cyclopropyl-3-{1-[(3R,5S)-3,5-dimethylpiperazin-1-yl]phthalazin-6-yl}-4-methylbenzamide] | ≤ 5 µM |
| Cc1ccc(C(=O)NC2CC2)cc1-c1ccc2c(N3CCN[C@@H](C)C3)nncc2c1 [Example 149, N-cyclopropyl-4-methyl-3-{1-[(3S)-3-methylpiperazin-1-yl]phthalazin-6-yl}benzamide] | ≤ 5 µM |
| Cc1ccc(C(=O)NC2CC2)cc1-c1ccc2c(C3CCN(C)CC3)nncc2c1 [Example 150, N-cyclopropyl-4-methyl-3-[1-(1-methylpiperidin-4-yl)phthalazin-6-yl]benzamide] | ≤ 5 µM |
